PubChem BioAssay AID1963853 (Molecular Pharmacology Branch, DTP, NCI, 2024)

System: 266295-075-R-J1-PDC spheroid viability
Test: Anticancer human tumor 266295-075-R-J1-PDC patient-derived head and neck squamous carcinoma cell line growth inhibition [POLQ]
Details: spheroids with HUVEC and MSC; for IC50: curve of first compound; for viability, T/C: stronger effect = lower value
Outline: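 PDC + HUVEC + MSC complex spheroids; POLQ inhibitors ± partner drugs; top conc. at/near clinical Cmax, else 10 microM (SN-38 1 microM), half-log dilutions; 37 degrees C, 5% CO2.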

[1] = second compound 0.0316 µM, first compound 0.0316 µM
[2] = second compound 0.0316 µM, first compound 0.1 µM
[3] = second compound 0.0316 µM, first compound 0.316 µM
[4] = second compound 0.0316 µM, first compound 1 µM
[5] = second compound 0.0316 µM, first compound 3.16 µM
[6] = second compound 0.0316 µM, first compound 10 µM
[7] = second compound 0.1 µM, first compound 0.0316 µM
[8] = second compound 0.1 µM, first compound 0.1 µM
[9] = second compound 0.1 µM, first compound 0.316 µM
[10] = second compound 0.1 µM, first compound 1 µM
[11] = second compound 0.1 µM, first compound 3.16 µM
[12] = second compound 0.1 µM, first compound 10 µM
[13] = second compound 0.316 µM, first compound 0.0316 µM
[14] = second compound 0.316 µM, first compound 0.1 µM
[15] = second compound 0.316 µM, first compound 0.316 µM
[16] = second compound 0.316 µM, first compound 1 µM
[17] = second compound 0.316 µM, first compound 3.16 µM
[18] = second compound 0.316 µM, first compound 10 µM
[19] = second compound 1 µM, first compound 0.0316 µM
[20] = second compound 1 µM, first compound 0.1 µM
[21] = second compound 1 µM, first compound 0.316 µM
[22] = second compound 1 µM, first compound 1 µM
[23] = second compound 1 µM, first compound 3.16 µM
[24] = second compound 1 µM, first compound 10 µM
[25] = second compound 3.16 µM, first compound 0.0316 µM
[26] = second compound 3.16 µM, first compound 0.1 µM
[27] = second compound 3.16 µM, first compound 0.316 µM
[28] = second compound 3.16 µM, first compound 1 µM
[29] = second compound 3.16 µM, first compound 3.16 µM
[30] = second compound 3.16 µM, first compound 10 µM
[31] = second compound 10 µM, first compound 0.0316 µM
[32] = second compound 10 µM, first compound 0.1 µM
[33] = second compound 10 µM, first compound 0.316 µM
[34] = second compound 10 µM, first compound 1 µM
[35] = second compound 10 µM, first compound 3.16 µM
[36] = second compound 10 µM, first compound 10 µM
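Further: spheroids exposed to compounds for seven days before readout.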

CNCc1ccc(-c2[nH]c3cc(F)cc4c3c2CCNC4=O)cc1 + COC1C(OC(N)=O)C(O)C(Oc2ccc3c(O)c(NC(=O)c4ccc(O)c(CC=C(C)C)c4)c(=O)oc3c2C)OC1(C)C was tested, and the IC50 (second compound 0.0316 µM) was > 10 µM, the IC50 (second compound 0.1 µM) was > 10 µM and the IC50 (second compound 0.316 µM) was > 10 µM. The IC50 (second compound 1 µM) was > 10 µM, the IC50 (second compound 3.16 µM) was > 10 µM and the IC50 (second compound 10 µM) was > 10 µM. For the same compound, the viability, T/C [1] was 95.1%, the viability, T/C [2] was 79.6% and the viability, T/C [3] was 86.8%. The viability, T/C [4] was 78.3%, the viability, T/C [5] was 83.8% and the viability, T/C [6] was 98.2%. For the same compound, the viability, T/C [7] was 90.2%, the viability, T/C [8] was 85.1% and the viability, T/C [9] was 97.2%. For the same compound, the viability, T/C [10] was 86.9%, the viability, T/C [11] was 91.3% and the viability, T/C [12] was 99%. For the same compound, the viability, T/C [13] was 111%, the viability, T/C [14] was 83.3% and the viability, T/C [15] was 93.1%. The viability, T/C [16] was 91.5%, the viability, T/C [17] was 108% and the viability, T/C [18] was 114%. It also gave a viability, T/C [19] of 92.8%, a viability, T/C [20] of 92.4% and a viability, T/C [21] of 90.5%. The viability, T/C [22] was 83.7%, the viability, T/C [23] was 107% and the viability, T/C [24] was 105%. For the same compound, the viability, T/C [25] was 97.7%, the viability, T/C [26] was 85.5% and the viability, T/C [27] was 92.1%. It also gave a viability, T/C [28] of 81%, a viability, T/C [29] of 108% and a viability, T/C [30] of 115%. For the same compound, the viability, T/C [31] was 94.2%, the viability, T/C [32] was 82.5% and the viability, T/C [33] was 96.7%. It also gave a viability, T/C [34] of 101%, a viability, T/C [35] of 113% and a viability, T/C [36] of 105%.
COc1ccc([C@@H](O)c2cc(-c3ncnc4cc(N5CCOCC5)ccc34)c(F)cc2Cl)nn1 + COC1C(OC(N)=O)C(O)C(Oc2ccc3c(O)c(NC(=O)c4ccc(O)c(CC=C(C)C)c4)c(=O)oc3c2C)OC1(C)C was tested, and the IC50 (second compound 0.0316 µM) was 3.45 µM, the IC50 (second compound 0.1 µM) was 4.06 µM and the IC50 (second compound 0.316 µM) was 4.31 µM. The IC50 (second compound 1 µM) was 3.67 µM, the IC50 (second compound 3.16 µM) was 2.48 µM and the IC50 (second compound 10 µM) was 2.74 µM. It also gave a viability, T/C [1] of 97.3%, a viability, T/C [2] of 84.5% and a viability, T/C [3] of 76.6%. For the same compound, the viability, T/C [4] was 62.7%, the viability, T/C [5] was 49.9% and the viability, T/C [6] was 40.7%. For the same compound, the viability, T/C [7] was 107%, the viability, T/C [8] was 105% and the viability, T/C [9] was 73.1%. The viability, T/C [10] was 74.5%, the viability, T/C [11] was 47.5% and the viability, T/C [12] was 43.7%. It also gave a viability, T/C [13] of 104%, a viability, T/C [14] of 85.9% and a viability, T/C [15] of 75.2%. For the same compound, the viability, T/C [16] was 64.7%, the viability, T/C [17] was 51.8% and the viability, T/C [18] was 43.4%. The viability, T/C [19] was 91.1%, the viability, T/C [20] was 96% and the viability, T/C [21] was 68.2%. The viability, T/C [22] was 73.6%, the viability, T/C [23] was 48.2% and the viability, T/C [24] was 39.8%. It also gave a viability, T/C [25] of 95.9%, a viability, T/C [26] of 84.6% and a viability, T/C [27] of 83.2%. The viability, T/C [28] was 62.2%, the viability, T/C [29] was 46% and the viability, T/C [30] was 40.2%. For the same compound, the viability, T/C [31] was 112%, the viability, T/C [32] was 75% and the viability, T/C [33] was 75.2%. It also gave a viability, T/C [34] of 63%, a viability, T/C [35] of 50.9% and a viability, T/C [36] of 37.3%.
In the case of COc1cccc(OCCCN)c1-c1cc(Nc2cnc(C#N)cn2)n[nH]1 + COC1C(OC(N)=O)C(O)C(Oc2ccc3c(O)c(NC(=O)c4ccc(O)c(CC=C(C)C)c4)c(=O)oc3c2C)OC1(C)C, the IC50 (second compound 0.0316 µM) is reported as > 1 µM, the IC50 (second compound 0.1 µM) is reported as > 1 µM and the IC50 (second compound 0.316 µM) is reported as > 1 µM. The IC50 (second compound 1 µM) was > 1 µM, the IC50 (second compound 3.16 µM) was > 1 µM and the IC50 (second compound 10 µM) was > 1 µM. For the same compound, the viability, T/C (second compound 0.0316 µM, first compound 0.00316 µM) was 87.7%, the viability, T/C (second compound 0.0316 µM, first compound 0.01 µM) was 81.7% and the viability, T/C [1] was 71.1%. The viability, T/C [2] was 64.2%, the viability, T/C [3] was 67.1% and the viability, T/C [4] was 71.7%. The viability, T/C (second compound 0.1 µM, first compound 0.00316 µM) was 109%, the viability, T/C (second compound 0.1 µM, first compound 0.01 µM) was 89.8% and the viability, T/C [7] was 84%. It also gave a viability, T/C [8] of 68.7%, a viability, T/C [9] of 65.6% and a viability, T/C [10] of 75.6%. For the same compound, the viability, T/C (second compound 0.316 µM, first compound 0.00316 µM) was 88.8%, the viability, T/C (second compound 0.316 µM, first compound 0.01 µM) was 85.4% and the viability, T/C [13] was 78.6%. The viability, T/C [14] was 70.6%, the viability, T/C [15] was 81.1% and the viability, T/C [16] was 70%. It also gave a viability, T/C (second compound 1 µM, first compound 0.00316 µM) of 96.7%, a viability, T/C (second compound 1 µM, first compound 0.01 µM) of 89.8% and a viability, T/C [19] of 76.4%. For the same compound, the viability, T/C [20] was 66.1%, the viability, T/C [21] was 72% and the viability, T/C [22] was 69.1%. It also gave a viability, T/C (second compound 3.16 µM, first compound 0.00316 µM) of 92.3%, a viability, T/C (second compound 3.16 µM, first compound 0.01 µM) of 96.7% and a viability, T/C [25] of 78.6%. The viability, T/C [26] was 74.3%, the viability, T/C [27] was 78.3% and the viability, T/C [28] was 76.1%. For the same compound, the viability, T/C (second compound 10 µM, first compound 0.00316 µM) was 87.6%, the viability, T/C (second compound 10 µM, first compound 0.01 µM) was 90.9% and the viability, T/C [31] was 70.4%. It also gave a viability, T/C [32] of 65.1%, a viability, T/C [33] of 66.5% and a viability, T/C [34] of 69.6%.
